Results on one compound are retold here after patent US20250115595A1, “INHIBITORS OF HYPOXIA-INDUCIBLE FACTORS” (The Johns Hopkins University, priority 2021, published 2025).

Test [1] relates to HIF-1α and HIF-2α. Nature of the test: HIF accumulation in hypoxic D120 hiPSC-derived retinal organoids. The following applies: 1% O2, 12 hours. Format: cell-based, human. On the procedure: To assess the therapeutic potential of 32-134D for diabetic patients, human induced pluripotent stem cell (hiPSC)-derived 3-dimensional (3D) retinal organoids were treated with 32-134D. It has been previously reported that hiPSC-derived 3D retinal organoids cultured under hypoxic conditions (1% O2) behave similar to ischemic human retinal tissue with increased accumulation of both HIF-1α and HIF-2α (J. Zhang et al., J Clin Invest 131 (2021)). By 120 days of differentiation (D120), the inner and outer retinal layers are clearly defined (FIGS. 32A and 32B) and contain the precursors of the major retinal cell types, including outer retina photoreceptors (expressing recoverin), few newly differentiating bipolar cell precursors (lacking expression of recoverin and Pax6), amacrine cells (expressing high levels of Pax6), as well as Müller cells (expressing CRALBP; FIGS. 32C and 32D).
Retinal organoids: An hiPSC line derived from CD34+ cord blood was used in this study (A18945, ThermoFisher Scientific) (P. W. Burridge et al., 2011, PLoS One 6, e18293). Undifferentiated hiPSCs and derived retinal organoids were routinely tested for Mycoplasma contamination by PCR. Cell culture, retinal differentiation, and organoid formation were conducted as previously described (X. Zhong et al., 2014, Nat Commun 5, 4047). Retinal organoids at 120 days of differentiation were used for experiments. […]

In test [2] the test system is STZ mice. Nature of the test: STZ diabetic mouse model, intraperitoneal dosing. Format: in vivo. The following applies: 5 daily IP injections 40 mg/kg. How it is done:
The ability of 32-143D to inhibit vascular permeability in diabetic patients was evaluated using the streptozotocin (STZ) model for diabetic macular edema. 8-to-10-week-old C57BL/6 mice were administered STZ by IP injection. Hyperglycemia (serum glucose >250 mg/dL) was confirmed by glucometer 2 weeks later. After 6 months of sustained hyperglycemia, mice were treated with 5 daily IP injections with 32-134D at 40 mg/kg or with vehicle control. 24 hours after the fifth IP injection, mice were euthanized, Evans blue perfusion was performed, and retina flat mounts were examined for vascular leakage.
Vascular permeability by Evans blue tracer method: Mice were anesthetized with a mixture of ketamine (50 mg/kg) and xylazine (5 mg/kg) and subjected to Evans blue (Sigma) (50 mg/kg) perfusion by penile vein injection. […] Images were captured by Zeiss fluorescent microscope or confocal microscopy and fluorescence quantified by image J software (NIH). […] Blinded quantification of the number of leaking vessels was performed by manual counting major leakage from capillaries from retinas of each group. Non-capillary artifactual Evans blue or FITC-dextran leakage due to flat mount processing as well as minor leakages were not included in the quantitation. […] Random fields were chosen from retinas where leakages were absent to determine baseline fluorescence that arise from capillaries. […]

Take `Brc1ccc2c(-c3csc(-c4c[nH]c5c(Br)cccc45)n3)c[nH]c2c1` [Compound 32-134D, 4-(6-bromo-1H-indol-3-yl)-2-(7-bromo-1H-indol-3-yl)thiazole]: in test [1], the “accumulation of HIF-1α and HIF-2α protein” value was “effectively prevented”. The “vascular leakage (Evans blue fluorescence intensity)” value in test [2] was “significantly decreased vascular leakage”.
